According to patent publication US20240398783A1, “Compounds and Pharmaceutical Compositions Comprising Inhibitors of Amyloid Peptide Interactions with Glycosaminoglycans, Methods of Treatment and Use Thereof” (Gismo Therapeutics, Inc., priority 2021, published 2024):
Structures can show the parent of a compound that is named as a salt. Where two headings read alike, the source gives them in different places.

Legend:
[1] = biological target: Alpha-Synuclein Protofibril binding to purified human brain membranes (Homo sapiens, UniProt P37840); assay: Inhibition of protofibrillar alpha-synuclein binding to purified human brain cell membranes (ELISA); conditions: alpha-synuclein protofibrils
Description: (§1) Purified human brain cell membranes were prepared by differential centrifugation as follows. Five grams of frozen human brain postmortem tissue (obtained from University of Kentucky Alzheimer's Disease Center Tissue Bank) was homogenized in 50 ml HEPES-Buffered sucrose (0.32M sucrose, 4 mM HEPES pH7.4, protease inhibitors) with a motor driven glass-teflon homogenizer. After removing nuclear and cell debris by centrifugation of homogenates at 1,000×g for 10 min at 4 degree Celsius, post-nuclear supernatant was centrifuged at 100,000×g for 30 minutes to yield the crude membrane pellet. Crude membrane pellet was re-suspended in 0.32M sucrose, then centrifuged again at 100,000×g for 30 minutes to yield washed membrane pellet. Membrane pellet was resuspended in sterile PBS (pH7.4), quickly frozen, and kept in aliquots at −80 degrees Celsius. This preparation contains human brain cell membranes. Protein concentration was measured with BCA protein assay kit (Pierce Cat. No. 23227). Purified brain membranes were diluted to 0.01 mg/ml in PBS (pH 7.4) and then added to a 96 well polystyrene ELISA plate (NUNC Cat. No. 449824; 100 μl per well). Plates were incubated Over Night (ON) at 4 degrees Celsius. Following the incubation, the plate was washed consecutively, by immersion, with de-ionized water and PBS (pH 7.4). The ELISA plate was then blocked with nonfat milk (2%, 200 μl per well) for 2 hours at Room Temperature (RT). Following blocking, the plate was washed with de-ionized water then PBS (pH 7.4). GBAPs were dissolved and diluted in PBS (pH 6.5, supplemented with 0.1% BSA) at desired concentrations, added to the ELISA plates coated with brain membranes (100 μl per well) and incubated for 2 hours at RT with gentle shaking. Following incubation, the plate was washed with de-ionized water and three times with PBS (pH 6.5) plus Tween. Bound GBAP was detected by a monoclonal antibody specific for that GBAP, followed by incubation with secondary antibody conjugated to horseradish peroxidase (HRP). Antibody was diluted in PBS (pH6.5 supplemented with 1% BSA). Following each incubation with antibody, the plate was washed with de-ionized water and three times with PBS (pH6.5) wash buffer containing 0.1% Tween. The peroxidase substrate chromogen, TMB (Dako Cat. No. S1599) was added (100 μl per well) to the ELISA plate and incubated at room temperature. After 5 minutes ELISA Stop Solution (hydrochloric acid 1N, sulfuric acid 3N) was added (100 μl per well) to stop the peroxidase catalyzed colorimetric reaction. The Optical Density of the samples was measured at 450 nm using an ELISA plate reader (BioTek Synergy H1). Following color development, the % inhibition compared to control was determined. IC-50s were calculated using GraphPad Prism software.
The assay was performed as described in Example 49, with the following modifications. Following to coating the plates with human brain membranes, plates were washed as described. The compounds were dissolved in DMSO at 10 mM final concentration and further diluted prior to assay. DMSO concentration in the screening well was up to 2%. Individual compounds were co-incubated with alpha-synuclein on plates coated with brain membranes. Protofibrillar Alpha-synuclein were prepared as described in Example 45. Protofibrillar Alpha-synuclein diluted in PBS (pH 6.5, supplemented with BSA, 0.1%) was added to the ELISA plate (100 μl per well) and incubated for 2 hours at RT with gentle shaking. Following the incubation, the plate was washed with de-ionized water and three times with PBS (pH 6.5) plus Tween. Bound alpha-synuclein was detected by Anti-Alpha-synuclein Monoclonal Antibody 211 (Santa Cruz Cat. No. sc-12767), followed by secondary anti-IgG antibody conjugated to HRP (R&D System, Cat. No. HAF007). Following to color development with TMB, as described in Example 49, the Optical Density of the samples was measured at 450 nm using an ELISA plate reader. […]

[2] = biological target: TDP-43 binding to purified human brain membranes (Homo sapiens, UniProt Q13148); assay: Inhibition of TDP-43 binding to purified human brain cell membranes (ELISA); conditions: TDP-43, purified human brain membranes
Chain of TDP-43 binding to purified human brain membranes (Q13148 whole entry): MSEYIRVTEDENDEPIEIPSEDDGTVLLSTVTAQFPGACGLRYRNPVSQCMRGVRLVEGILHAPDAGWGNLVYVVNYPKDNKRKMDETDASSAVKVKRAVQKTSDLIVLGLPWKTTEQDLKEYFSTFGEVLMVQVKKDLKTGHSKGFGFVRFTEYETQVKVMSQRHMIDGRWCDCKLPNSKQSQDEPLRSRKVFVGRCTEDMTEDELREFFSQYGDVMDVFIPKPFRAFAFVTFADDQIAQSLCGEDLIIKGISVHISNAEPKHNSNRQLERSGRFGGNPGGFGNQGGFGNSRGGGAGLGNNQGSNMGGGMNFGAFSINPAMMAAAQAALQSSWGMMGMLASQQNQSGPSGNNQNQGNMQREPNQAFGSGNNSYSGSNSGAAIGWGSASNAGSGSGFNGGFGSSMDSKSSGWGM
Description: as §1
The assay was performed as described in Example 49, with the following modifications. Following to coating the plates with purified human brain cell membranes, plates were washed as described. The compounds were dissolved in DMSO at 10 mM final concentration and further diluted prior to assay. DMSO concentration in the screening well was up to 2%. Individual compounds were co-incubated with TDP-43 on plates coated with brain membranes. TDP43 from R&D System (Cat. No. AP-190) was quickly frozen and kept in aliquots at −80 degrees Celsius. TDP-43 dissolved in PBS (pH 6.5, supplemented with BSA, 0.1%) was added to the ELISA plate (100 μl per well) and incubated for 2 hours at RT with gentle shaking. Following the incubation, the plate was washed with de-ionized water and three times with PBS (pH 6.5) plus Tween. Bound TDP-43 was detected by Anti-TDP43 Monoclonal Antibody (R&D System Cat. No. MAB7778), followed by secondary anti-IgG antibody conjugated to HRP (R&D System, Cat. No. HAF007). Following to color development with TMB, as described in Example 49, the Optical Density of the samples was measured at 450 nm using an ELISA plate reader. […]

[3] = Alpha-Synuclein/Membrane Activity (IC-50)
[4] = TDP43/Membrane Activity (IC-50)
[5] = read-out: Alpha-Synuclein/Membrane Activity (IC-50)
[6] = read-out: TDP43/Membrane Activity (IC-50)

| IC50 [1, 5] [µM] | IC50 [2, 6] [µM] | Structure (SMILES) | IC50 [1, 3] [µM] | IC50 [2, 4] [µM] |
| --- | --- | --- | --- | --- |
|  |  | Cc1ncn(-c2ncc(Nc3ncnc4cc(Cl)ccc34)cc2O)c1C [Compound 40, 5-((7-chloroquinazolin-4-yl)amino)-2-(4,5-dimethyl-1H-imidazol-1-yl)pyridin-3-ol phosphoric acid salt] | 34.5 | 5.28 |
|  |  | Fc1ccc2c(N/N=C/c3ccc(-n4ccnc4)cc3)ccnc2c1 [Compound 5, (E)-4-(2-(4-(1H-imidazol-1-yl)benzylidene)hydrazinyl)-7-fluoroquinoline] |  | 14.1 |
|  |  | C/C(=N\Nc1ncnc2cc(Cl)ccc12)c1ccc(-n2cnc(C)c2C)nc1 [Compound 16, 7-chloro-4-(2-(1-(6-(4,5-dimethyl-1H-imidazol-1-yl)pyridin-3-yl)ethylidene)hydrazineyl)quinazoline phosphate] | 3.25 | 2.11 |
|  |  | Cc1ncn(-c2ccc(Nc3ncnc4cc(Cl)ccc34)cn2)c1C [Compound 25, 7-chloro-N-(6-(4,5-dimethyl-1H-imidazol-1-yl)pyridin-3-yl)quinazolin-4-amine] | 3.4 | 11.5 |
|  |  | Clc1ccc2c(Nc3ccc(-n4cncn4)nc3)ncnc2c1 [Compound 34, N-(6-(1H-1,2,4-triazol-1-yl)pyridin-3-yl)-7-chloroquinazolin-4-amine phosphoric acid salt] | 4.38 | 3.67 |
|  |  | C(=N\Nc1ccc2c3c(cccc13)CC2)/c1ccc(-n2ccnc2)cc1 [Compound 8, (E)-1-(4-((2-(1,2-dihydroacenaphthylen-5-yl)hydrazineylidene)methyl)phenyl)-1H-imidazole] |  | 25.2 |
|  |  | Clc1ccc2c(N/N=C/c3ccc(-n4ccnc4)cc3)ccnc2c1 [Compound 38, 4-(2-(4-(1H-imidazol-1-yl)benzylidene)hydrazineyl)-7-chloroquinoline dihydrochloride] | 2.79 | 6.17 |
| 5.8 | 8.32 | Clc1ccc2c(Nc3ccc(-n4ccnc4)nc3)ncnc2c1 [Compound 41, N-(6-(1H-imidazol-1-yl)pyridin-3-yl)-7-chloroquinazolin-4-amine] |  |  |
|  |  | CN1CCN(Cc2ccc(/C=N/Nc3ccnc4cc(Cl)ccc34)cc2)CC1 [Compound 7, (E)-7-chloro-4-(2-(4-((4-methylpiperazin-1-yl)methyl)benzylidene)hydrazinyl)quinolone] | 42.1 |  |
|  |  | COc1cc2nccc(N/N=C/c3ccc(-n4ccnc4)c(OC)c3)c2cc1OC [Compound 13, (E)-4-(2-(4-(1H-imidazol-1-yl)-3-methoxybenzylidene)hydrazineyl)-6,7-dimethoxyquinoline phosphate] | 4.03 |  |
|  |  | Clc1ccc2c(Nc3ccc(-n4cncn4)nc3)ccnc2c1 [Compound 44, N-(6-(1H-1,2,4-triazol-1-yl)pyridin-3-yl)-7-chloroquinolin-4-amine] | 22.3 | 26.2 |
| 3.17 | 8.93 | CC(=NNc1ncnc2cc(Cl)ccc12)c1ccnc(-n2cnc(C)c2C)c1 [Compound 28, 7-chloro-4-(2-(1-(2-(4,5-dimethyl-1H-imidazol-1-yl)pyridin-4-yl)ethylidene)hydrazineyl)quinazoline] |  |  |
| 10.1 | 3.42 | Cc1cc(-n2ccnc2)ccc1/C=N/Nc1ccnc2cc(Cl)ccc12 [Compound 1, (E)-4-((E)-(4-(1H-imidazol-1-yl)-2-methylbenzylidene)hydrazono)-7-chloro-1,4-dihydroquinoline] |  |  |
|  |  | C[N+](C)(C)Cc1ccc(/C=N\Nc2ccnc3ccc(Cl)cc23)cc1 [Compound 4, (Z)-1-(4-((2-(6-chloroquinolin-4-yl)hydrazineylidene)methyl)phenyl)—N,N,N-trimethylmethanaminium iodide] | 10.7 |  |
|  |  | CC(=NNc1ccnc2cc(Cl)ccc12)c1ccc(-n2cnc(C)c2C)nc1 [Compound 22, 7-chloro-4-(2-(1-(6-(4,5-dimethyl-1H-imidazol-1-yl)pyridin-3-yl)ethylidene)hydrazineyl)quinoline] | 10.6 | 12.2 |
|  |  | Fc1ccc2c(N/N=C/c3ccc(CN4CCOCC4)cc3)ccnc2c1 [Compound 6, (E)-4-(4-((2-(7-fluoroquinolin-4-yl)hydrazono)methyl)benzyl)morpholine] | 3.36 |  |
|  |  | C/C(=N\Nc1ncnc2cc(Cl)ccc12)c1ccc(-n2cc[n+](C)c2)nc1 [Compound 17, (E)-1-(5-(1-(2-(7-chloroquinazolin-4-yl)hydrazineylidene)ethyl)pyridin-2-yl)-3-methyl-1H-imidazol-3-ium iodide phosphoric acid salt] | 13.1 | 22.5 |
|  |  | Clc1ccc2c(N/N=C/c3ccc(-n4ccnc4)nc3)ccnc2c1 [Compound 14, (E)-4-(2-((6-(1H-imidazol-1-yl)pyridin-3-yl)methylene)hydrazineyl)-7-chloroquinoline hydrochloride] | 6.51 | 4.01 |
| 1.8 | 7.12 | C/C(=N\Nc1ncnc2cc(F)ccc12)c1ccc(-n2cnc(C)c2C)nc1 [Compound 21, (E)-4-(2-(1-(6-(4,5-dimethyl-1H-imidazol-1-yl)pyridin-3-yl)ethylidene)hydrazineyl)-7-fluoroquinazoline] |  |  |
|  |  | C/C(=N\Nc1ncnc2cc(F)ccc12)c1ccc(-n2cc[n+](C)c2)nc1 [Compound 26, (E)-1-(5-(1-(2-(7-fluoroquinazolin-4-yl)hydrazineylidene)ethyl)pyridin-2-yl)-3-methyl-1H-imidazol-3-ium phosphoric acid salt] |  | 27.2 |
|  |  | CCN1CCN(c2ccc(Nc3ccnc4cc5ccccc5cc34)cc2)CC1 [Compound 39, N-(4-(4-ethylpiperazin-1-yl)phenyl)benzo[g]quinolin-4-amine] | 45.8 |  |
|  |  | Fc1cc(/C=N/Nc2ccnc3cc(Cl)ccc23)ccc1-n1ccnc1 [Compound 35, (E)-7-chloro-4-(2-(3-fluoro-4-(1H-imidazol-1-yl)benzylidene)hydrazineyl)quinoline hydrochloride] |  | 13.1 |

| Structure (SMILES) | IC50 [1, 5] [µM] | IC50 [2, 6] [µM] | IC50 [1, 3] [µM] | IC50 [2, 4] [µM] |
| --- | --- | --- | --- | --- |
| C/C(=N\Nc1nncc2cc(Cl)ccc12)c1ccc(-n2cc(C)nc2C)nc1 [Compound 24, (E)-6-chloro-1-(2-(1-(6-(2,4-dimethyl-1H-imidazol-1-yl)pyridin-3-yl)ethylidene)hydrazineyl)phthalazine] |  | 4 | 4.03 |  |
| C/C(=N\Nc1ncnc2cc(Cl)ccc12)c1ccc(-n2cc(C)nc2C)nc1 [Compound 27, (E)-7-chloro-4-(2-(1-(6-(2,4-dimethyl-1H-imidazol-1-yl)pyridin-3-yl)ethylidene)hydrazineyl)quinazoline hydrochloride] | 7.31 | 2.98 |  |  |
